Source: patent publication US20090264342A1, “COMPOSITIONS AND METHODS FOR ANTIBIOTIC POTENTIATION AND DRUG DISCOVERY” (priority 2006, published 2009)

Columns and labels:
E. coli MG1655 = assay: Hydroxyl radical formation (HPF dye, flow cytometry) in E. coli; type: cell-based; details: for hydroxyl radical formation: E. coli, 250 ng/mL norfloxacin, 5 μg/mL ampicillin, 5 μg/mL kanamycin, bacteriostatic drugs, 3 hours after addition
Procedure: (§1) Growth Conditions. In the experiments, the growth and survival of untreated exponential phase E. coli, or S. aureus, were compared to cultured treated with antibiotics at the above concentrations. E. coli cultures were treated with norfloxacin, kanamycin, ampicillin, rifamycin SV, chloramphenical, tetracycline, erythromycin, or spectinomycin, where appropriate, S. aureus cultures were treated with norfloxacin, vancomycin or chloramphenical, where appropriate.
Hydroxyl radical and DNA damage sensor experiments using the flow cytometer. To monitor the occurrence of DNA damage, the engineered DNA damage sensor was used, which responds to auto-cleavage of LexA by activating expression of gfpmut3b. All the drug treatments and the no-drug controls were collected with both the kanamycin- and ampicillin-resistant version of the plasmid, with the exception of the ampicillin treatment (kanamycin plasmid only) and the kanamycin treatment (ampicillin plasmid only). All data were collected using a Becton Dickinson FACSCalibur flow cytometer (Becton Dickinson, San Jose, Calif.) with a 488-nm argon laser and a 515- to 545-nm emission filter (FL1) at low flow rate. The following PMT voltage settings were used: E00 (FSC), 360 (SSC) and 700 (FL1). To detect hydroxyl radical formation, the fluorescent reporter dye, 3′-(p-hydroxyphenyl) fluorescein (HPF, Invitrogen, Carlsbad, Calif.) was used at a concentration of 5 μM (1:1000) dilution), which is oxidized by hydroxyl radicals with high specificity. The following PMT voltage settings were used: E00 (FSC), 360 (SSC) and 825 (FL 1). Calibrite beads (Becton Dickinson) were used for instrument calibration.
Flow data were processed and analyzed with MATLAB (MathWorks, Natick, Mass.) to construct figures. At least 50,000 cells were collected for each sample. In all experiments, cells were grown as described above. Samples were taken immediately before addition of drug (time zero), then every hour for 3 hours. At each timepoint, approximately […] were collected, washed once and resuspended in filtered 1×PBS, pH 7.2 (Fisher Scientific), and fluorescence was measured on the flow cytometer.
In the present study, the Applicants chose to investigate whether hydroxyl radical formation also contributes to antibiotic-induced cell death in bacteria. Using the dye hydroxyphenyl fluorescein, HPF, which is oxidized by hydroxyl radicals with high specificity, hydroxyl radical formation was first observed over a range of hydrogen peroxide concentrations known to induce hydroxyl radicals through the reduction of hydrogen peroxide by ferrous iron. In this manner, it was possible to establish the scale of hydroxyl radical formation detectable using this dye via flow cytometry.

wild-type E. coli = type: cell-based; details: norfloxacin, ampicillin or kanamycin treatment plus 2,2′-dipyridyl (500 μM)
Procedure: FIG. 36 is a set of 3 graphs showing the effect of iron chelation, hydroxyl radical quenching of iron-sulfur synthesis on the […] efficiency of bactericidal antibiotics. a,c,e, Log change in colony forming units per mL (CFU/mL, mean+/−standard deviation). Effect of addition of 500 μM 2,2′-dipyridyl or 150 mM thiourea to wildtype E. coli, and on an iron-sulfur cluster synthesis mutant, ΔiscS, on bactericidal drug efficacy and hydroxyl radical formation following exposure to a, 250 ng/mL norfloxacin (Nor), c, 5 μg/mL ampicillin (Amp), or e, 5 μg/mL kanamycin (Kan).
as §1
Application of iron chelators is an established means of blocking Fenton reaction-mediated hydroxyl radical formation by sequestering unbound iron. […]

[1] = test system: SOS response (LexA auto-cleavage) in E. coli; assay: SOS induction, LexA-controlled GFP DNA damage sensor; type: cell-based; details: 5 μg/mL Amp, 5 μg/mL Kan, 25 ng/mL Nor; 3 hours after addition
Procedure: FIG. 37 is a set of two graphs showing SOS induction in E. coli by bactericidal antibiotics. Activation of the SOS response was monitored using an engineered sensor construct that employs the LexA repressor for control of Green Fluorescent Protein (GFP) expression. Shown are representative GFP histogram measurements taken 3 hours after addition of a, bactericidal antibiotics (5 μg/mL Amp, 5 μg/mL Kan, 25 ng/mL Nor). b, Log change in CFU/mL of ΔrecA E. coli following exposure to 5 μg/mL Kanamycin (open diamonds), 25 ng/mL Norfloxacin (open triangles), and 5 μg/mL Ampicillin (open circles). For comparison, CFU/mL are also shown for widltype E. coli exposed to 5 μg/mL Kanamycin (diamonds), 25 ng/mL Norfloxacin (triangles), and 5 μg/mL Ampicillin (circles), as well as a lower concentration of norfloxacin in these experiments to highlight the significant increase in killing in a recA knockout.
DNA damage sensor construction. The DNA sensor construct with ampicillin resistance was described previously (D. J. Dwyer et al., “Superoxide and hydroxyl radicals contribute to gyrase inhibitor-mediated cell death in E. coli”, 2007 accepted by Mol. Syst. Biol., which is incorporated herein by reference in its entirety).
Hydroxyl radical and DNA damage sensor experiments using the flow cytometer. […]
Hydroxyl radical are extremely toxic, and will readily damage membrane lipids, proteins and DNA. […]

Streptomyces pneumoniae = details: more active than ciprofloxacin against this pathogen; cited from earlier work
[2] = test system: S. aureus strain S3 (ISP 794); assay: Survival assay, potentiation of ciprofloxacin, S. aureus strain S3; type: cell-based; details: 1 μg/mL ciprofloxacin + 25 μg/mL hinokiflavone, 16 hour time point
Text: Cell-based Survival Assay.

S. aureus cells = assay: Mutation/resistance assay, resistance to ciprofloxacin; type: cell-based; details: 4×MIC ciprofloxacin with (+) or without (−) 25 μg/mL hinokiflavone
Procedure: This assay measures the rate at which mutant cells arise in the presence of an antibiotic agent. Cells are grown in the presence of antibiotic agent at a concentration above (generally well above, e.g., 4× or 8×) its MIC, and further in the presence or absence of a test agent (that may inhibit or enhance mutation).
Every 24 hours, an aliquot is removed from the culture and is diluted so that the antibiotic agent is no longer present at a concentration above its MIC (e.g., so that the antibiotic agent is present at 0.5×MIC or less). These aliquoted samples are then assayed to determine whether they can grow in the presence of the antibiotic agent. Specifically, when growth is observed in the presence of antibiotic agent at a concentration that is 4×MIC, then resistance is said to have developed. Test compounds can therefore be assayed to assess whether or not they can reduce the incidence of resistance (e.g., by inhibiting mutation).
These aliquoted samples were then assayed to determine whether they can grow in the presence of ciprofloxacin. […]

E. Coli RecA protein = target: T1, E. Coli RecA protein (Escherichia coli, UniProt P0A7G6); assay: RecA ATPase activity, in vitro luciferase assay; type: biochemical; details: luciferase assay screen
T1 construct: purchased New England Biolabs
Procedure: The assay measures the amount of ATPase (adenosine triphosphate (ATP)-adenosine diphosphate (ADP)) activity catalyzed by E. Coli RecA protein. In the assay, recA is incubated in reaction buffer with DNA, ATP and compounds of interest for a measured amount of time. The quantity of ATP remaining after the RecA reaction is quantitated using a subsequent luciferase assay. […] Details of the assay are provided below.
Materials. Kingase glo plus, adenosine triphosphate (ATP), Adenosine 5′-O-(3-thiotriphosphate), and 384 well plates, white were obtained from Fisher; and M13 mp18 Single-stranded DNA, RecA Protein and T4 Polynucleotide Kinase Reaction Buffer=PNK were obtained from New England Biolabs. PNK contained 70 mM Tris-CL pH 7.5, 10 mM MgCl2 and 5 mM DTT.
Assay Procedure. Final reaction mixture contains: 0.5 μL of M13 single stranded DNA (250 μg/mL); 1.0 μL of 10×PHK buffer; 0.25 μL of RecA (2 mg/mL); 0.25 μL of 1 mM ATP; 0.25 μL of test compound in DMSO; and […] of H2O.
Test compounds are incubated at room temperature in the presence of RecA protein and DNA prior to addition of ATP. This can be achieved by the preparation of two mixes, as indicated below. Desirably, both a no-DNA and a DNA/DMSO-only (i.e., no test compound) control were included.
The following steps are then performed: (1) Add 7.75 μL of mix 1 to the well of a 384 well plate; (2) Add 0.5 μL of the compound of interest; (3) Incubate at room temperature for 5 minutes; (4) Add 2.5 μL of the ATP mix. Incubate at room temperature for 30 minutes; (5) Add 12.5 μL of Promega Kinase glo plus; (6) Incubate at room temperature for 10 minutes or more; and (7) Measure luminescence of the reaction.
Tested compounds were obtained from Boston University (1205 compounds from CMLD diversity library, available from Dr. Scott Schauss), IndoFine (66 compounds based on flavone structure), ChemdiV (48 compounds known to be ATPase inhibitors and 720 compounds structurally related to CB101 (described, for example, in U.S. Ser. No. 60/662,038), and Asinex. Five (5) tested compounds were bisfiavones and 28 were predicted, based on structural modeling (see, for example, Example 31) to dock with Rec A. Many of the compounds are lipophilic, natural-product-like compounds. Others are flavones, bisflavones, flavonoids, coumarins, and/or heterocyclic compounds.
Percent inhibition is calculated according to the following equation: […]

wildtype E. coli = assay: NAD+/NADH extraction and NAD cycling assay; type: cell-based; details: bacteriostatic drug
Text: NAD+/NADH extraction and NAD cycling assay. Protocols for dinucleotide extraction and the cycling assay were based on protocols by Leonardo et al. (M. R. Leonardo et al., J. Bacteriol., 1996, 178: 6013-6018).
Using a modified version (M. R. Leonardo et al., J. Bacteriol., 1996, 178: 6013-6018;) of the NAD^+ cycling assay developed by Bernofsky and Swan (C. Bernofsky et al., Anal. Biochem., 1973, 53: 452-458), the present Applicants monitored NAD^+ and NADH concentrations in wildtype E. coli following treatment with the bactericidal drugs norfloxacin, ampicillin and kanamycin, as well as the bacteriostatic drug spectinomycin. For all three bactericidal drugs, a >5 fold increase in the NAD^+/NADH ratio was observed 0.5 hours after drug addition. This ratio returned to untreated levels by 1 hour. The increase in the NAD^+/NADH ratio was predominantly due to a large relative drop in NADH accompanied by a modest surge in NAD^+. This spike was not observed in an untreated culture, where the ratio of NAD^+/NADH remained tightly bounded. More importantly, treatment with the bacteriostatic drug spectinomycin had no effect on the NAD^+/NADH ratio relative to the untreated culture. A surge in NADH consumption upon exposure to bactericidal antibiotics should induce a burst in superoxide generation via the respiratory chain. […]

T1 sequence (P0A7G6 2-353): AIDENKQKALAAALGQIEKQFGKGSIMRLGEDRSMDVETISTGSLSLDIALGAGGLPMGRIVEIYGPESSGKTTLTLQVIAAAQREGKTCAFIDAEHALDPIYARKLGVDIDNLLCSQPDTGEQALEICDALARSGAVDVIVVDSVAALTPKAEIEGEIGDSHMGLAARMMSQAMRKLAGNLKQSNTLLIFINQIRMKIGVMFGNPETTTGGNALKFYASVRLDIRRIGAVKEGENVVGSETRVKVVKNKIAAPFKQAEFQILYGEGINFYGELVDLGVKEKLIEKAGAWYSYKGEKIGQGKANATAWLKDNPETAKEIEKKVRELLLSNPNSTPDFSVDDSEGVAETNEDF

Question: With `c1ccc(-c2ccccn2)nc1` [2,2′-dipyridyl] as the compound, how does the “hydroxyl radical formation in norfloxacin-treated cultures” value (E. coli MG1655; addition of 2,2′-dipyridyl (500 μM)) read?
Answer: significantly reduced hydroxyl radical formation

Question: And the “survival of bactericidal drug-treated E. coli following addition of iron chelator” value (wild-type E. coli)?
Answer: significant increase in survival

Question: Which results are given for `CC1(C)S[C@@H]2[C@H](NC(=O)[C@H](N)c3ccccc3)C(=O)N2[C@H]1C(=O)O` [ampicillin]?
Answer: hydroxyl radical formation (E. coli MG1655): induce hydroxyl radical formation; SOS activity (LexA-driven GFP expression) [1]: induced the SOS response

Question: Which “activity relative to ciprofloxacin” value (Streptomyces pneumoniae) does the source give for `CO/N=C1\CN(c2nc3c(cc2F)c(=O)c(C(=O)O)cn3C2CC2)CC1CN` (stereo not drawn) [Gemifloxacin] here?
Answer: 30 fold

Question: What does the source list for `O=c1cc(-c2ccc(Oc3c(O)cc4oc(-c5ccc(O)cc5)cc(=O)c4c3O)cc2)oc2cc(O)cc(O)c12` [hinokiflavone]?
Answer: fewer CFUs in the presence of hinokiflavone as compared with its absence [2]: approximately 100 fold; Number of Wells in which Growth Observed in Presence of Ciprofloxacin at 4x MIC (S. aureus cells; culture grown 0 days): 0; Number of Wells in which Growth Observed in Presence of Ciprofloxacin at 4x MIC (S. aureus cells; culture grown 1 day): 0; Number of Wells in which Growth Observed in Presence of Ciprofloxacin at 4x MIC (S. aureus cells; culture grown 5 days): 0; Number of Wells in which Growth Observed in Presence of Ciprofloxacin at 4x MIC (S. aureus cells; culture grown 6 days): 0; Number of Wells in which Growth Observed in Presence of Ciprofloxacin at 4x MIC (S. aureus cells; culture grown 7 days): 3; Number of Wells in which Growth Observed in Presence of Ciprofloxacin at 4x MIC (S. aureus cells; culture grown 10 days): 4; IC50 (E. Coli RecA protein): < 1860 nM

Question: Which hydroxyl radical formation (E. coli MG1655) does the source give for `CN[C@@H]1[C@H](O)[C@H](NC)[C@H]2O[C@@]3(O)C(=O)C[C@@H](C)O[C@H]3O[C@@H]2[C@H]1O` [spectinomycin] here?
Answer: did not stimulate hydroxyl radical production

Question: What about the “effect on the NAD+/NADH ratio relative to the untreated culture” value (wildtype E. coli) of the same compound?
Answer: no effect
